Assay [1] has as its target T1, delF508-CFTR-HRP (Homo sapiens, UniProt P13569, DEL508-508).
T1 construct: expressed in transfected cells
Nature of the assay: Measurement of delF508-CFTR-HRP surface expression in CFBE41o- cells (HRP luminescence).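 For DelF508-CFTR-HRP Amax %: percent efficacy relative to a reference CFTR corrector compound.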 Particulars: for EC50: mean of at least two replicates; for Emax: CFBE41o-, read-out: DelF508-CFTR-HRP Amax %. It counts as cell-based. The method, boiled down:
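EC50 derived by logistic regression of triplicate surface-HRP luminescence, plate-normalized to the lowest-concentration median. Doxycycline (500 ng/mL, 48 h) induced delF508-CFTR-HRP in CFBE41o- cells; compounds then applied 24 h at 37° C, 10 μM top, 3-fold over 10 points.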

The target of assay [2] is T2, delF508-CFTR (Homo sapiens, UniProt P13569, DEL508-508).
T2 construct: functional activity of the CFTR channel (Chloride ion transport) in patient derived primary human bronchial epithelial cells; host or cells: patient-derived primary human bronchial epithelial cells (HBECs), delF508-CFTR
Nature of the assay: delF508-CFTR functional activity in primary human bronchial epithelial cells (HBECs), Multi-Transepithelial Clamp Circuit (MTECC-24) assay, equivalent short circuit current. It counts as cell-based. Particulars: primary CF HBECs; for MTECC24 CFHBEC-Amax %: relative to reference combination 2 μM 3-(6-(1-(2,2-difluorobenzo[d][1,3]dioxol-5-yl)cyclopropane-1-carboxamido)-3-methylpyridin-2-yl)benzoic acid (24 h) + 0.5 μM N-(2,4-di-tert-butyl-5-hydroxyphenyl)-4-oxo-1,4-dihydroquinoline-3-carboxamide; for EC50: test compound added 24 h before assay, potentiator (S)-3-amino-6-methoxy-N-(3,3,3-trifluoro-2-hydroxy-2-methylpropyl)-5-(trifluoromethyl)picolinamide present at assay, mean of at least two replicates, read-out: MTECC24 CFHBEC-EC50. The method, boiled down: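 Compound acted as corrector on differentiated primary delF508-CFTR bronchial cultures, first 24 h basolaterally, then 45 min both sides before reading. Equivalent short circuit current was recorded during sequential forskolin and potentiator addition. EC50 came from 10-point, 1-in-3 dilution curves against the 0.1% DMSO baseline.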

The structures appear in SMILES notation.

By EC50 is commonly meant the midpoint of the concentration-response curve.

T2 sequence (P13569 with tags, fused parts or gaps DEL508-508): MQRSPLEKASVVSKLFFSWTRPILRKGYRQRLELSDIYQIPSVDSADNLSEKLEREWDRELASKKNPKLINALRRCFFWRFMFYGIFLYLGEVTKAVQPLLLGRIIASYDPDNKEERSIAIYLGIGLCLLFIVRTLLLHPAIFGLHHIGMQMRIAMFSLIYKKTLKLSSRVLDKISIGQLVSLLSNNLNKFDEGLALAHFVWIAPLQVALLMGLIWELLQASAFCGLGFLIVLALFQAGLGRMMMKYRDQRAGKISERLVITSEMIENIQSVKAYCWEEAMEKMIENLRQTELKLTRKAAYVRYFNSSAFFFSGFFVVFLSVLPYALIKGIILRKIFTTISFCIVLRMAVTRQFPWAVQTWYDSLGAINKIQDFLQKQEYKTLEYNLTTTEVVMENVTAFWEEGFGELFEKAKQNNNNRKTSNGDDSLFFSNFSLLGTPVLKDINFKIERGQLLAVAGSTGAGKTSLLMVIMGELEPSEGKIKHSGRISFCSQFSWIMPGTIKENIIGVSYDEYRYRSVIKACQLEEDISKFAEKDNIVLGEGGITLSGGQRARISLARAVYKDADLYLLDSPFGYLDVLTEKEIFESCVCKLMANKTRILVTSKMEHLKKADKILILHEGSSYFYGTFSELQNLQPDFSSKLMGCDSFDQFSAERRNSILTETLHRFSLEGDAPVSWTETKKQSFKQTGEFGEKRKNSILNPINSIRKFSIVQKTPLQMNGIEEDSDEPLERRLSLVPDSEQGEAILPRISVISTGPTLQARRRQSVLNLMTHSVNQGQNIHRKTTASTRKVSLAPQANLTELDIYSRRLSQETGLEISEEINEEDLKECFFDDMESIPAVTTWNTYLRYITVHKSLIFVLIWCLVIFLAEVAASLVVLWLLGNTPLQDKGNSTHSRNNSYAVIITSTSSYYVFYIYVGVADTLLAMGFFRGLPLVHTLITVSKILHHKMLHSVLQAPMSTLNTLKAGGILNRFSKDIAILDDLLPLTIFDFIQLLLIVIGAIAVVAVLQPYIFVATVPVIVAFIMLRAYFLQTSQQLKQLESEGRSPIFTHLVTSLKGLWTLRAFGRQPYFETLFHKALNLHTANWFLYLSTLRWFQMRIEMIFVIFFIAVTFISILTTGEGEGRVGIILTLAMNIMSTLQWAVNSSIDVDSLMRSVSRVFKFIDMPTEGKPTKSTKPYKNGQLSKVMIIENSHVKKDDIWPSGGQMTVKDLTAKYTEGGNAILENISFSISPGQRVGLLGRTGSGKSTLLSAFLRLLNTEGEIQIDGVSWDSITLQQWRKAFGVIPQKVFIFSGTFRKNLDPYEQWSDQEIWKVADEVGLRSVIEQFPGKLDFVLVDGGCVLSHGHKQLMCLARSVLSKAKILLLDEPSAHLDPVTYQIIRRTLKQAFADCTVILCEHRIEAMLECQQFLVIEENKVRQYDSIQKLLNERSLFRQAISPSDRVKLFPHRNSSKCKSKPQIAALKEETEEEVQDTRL
T1 sequence (P13569 with tags, fused parts or gaps DEL508-508): as above

Consider `Cc1ccc(C2CCC(C)(C)OC2)c(OC2(C(=O)NS(=O)(=O)c3cccc(N4CCC(O)(c5ccc(Cl)cc5)CC4)n3)CC2)c1` (single isomer, unassigned) [Example 11-1-2, N-((6-(4-(4-chlorophenyl)-4-hydroxypiperidin-1-yl)pyridin-2-yl)sulfonyl)-1-(2-(6,6-dimethyltetrahydro-2H-pyran-3-yl)-5-methylphenoxy)cyclopropane-1-carboxamide], for which, in assay [1], the “DelF508-CFTR-HRP Amax %” value was 819.2% and the EC50 came out at 900 nM. Further, in assay [2], the “MTECC24 CFHBEC-Amax %” value came out at 191.0% and the EC50 was determined as 176 nM.
As for `Cc1ccc(C2CCCCC2)c(OC2(C(=O)NS(=O)(=O)c3cccc(N4CCC(C)(N)C4)n3)CC2)c1` (centres unmarked) [Example 2-27, N-((6-(3-Amino-3-methylpyrrolidin-1-yl)pyridin-2-yl)sulfonyl)-1-(2-cyclohexyl-5-methylphenoxy)cyclopropanecarboxamide], in assay [1], the Emax stood at 181% and the EC50 was 2580 nM. Also, in assay [2], the “MTECC24 CFHBEC-Amax %” value is given as 104% and the EC50 turned out to be 70 nM.
Turning to `Cc1ccc(C2CCCCC2)c(OC2(C(=O)NS(=O)(=O)c3cccc(N4CCOC[C@@H]4C)n3)CC2)c1` [Example 2-2, (S)-1-(2-Cyclohexyl-5-methylphenoxy)-N-((6-(3-methylmorpholino)pyridin-2-yl)sulfonyl)cyclopropanecarboxamide], in assay [1], the Emax amounted to 561% and the EC50 came to 1330 nM. Besides, in assay [2], the “MTECC24 CFHBEC-Amax %” value was 59% and the EC50 turned out to be 2 nM.
Turning to `Cc1ccc(C2CCCCC2)c(OC2(C(=O)NS(=O)(=O)c3cccc(N4CCC(C)(NC(=S)NC5CC5)CC4)n3)CC2)c1` [Example 2-23, 1-(2-Cyclohexyl-5-methylphenoxy)-N-((6-(4-(3-cyclopropylthioureido)-4-methylpiperidin-1-yl)pyridin-2-yl)sulfonyl)cyclopropanecarboxamide], in assay [1], the Emax was 330% and a half-maximal effect (EC50) was put at 1850 nM. In addition, in assay [2], the “MTECC24 CFHBEC-Amax %” value is recorded as 66% and the EC50 amounted to 4 nM.
As for `Cc1ccc(C2CCCCC2)c(OC2(C(=O)NS(=O)(=O)c3cccc(N4CCC(CF)(NC(=O)OC(C)(C)C)CC4)n3)CC2)c1` [Example 2-42, Tert-butyl (1-(6-(N-(1-(2-cyclohexyl-5-methylphenoxy)cyclopropanecarbonyl)sulfamoyl)pyridin-2-yl)-4-(fluoromethyl)piperidin-4-yl)carbamate], in assay [1], the Emax turned out to be 284% and the response was half-maximal at 880 nM (EC50). In assay [2], the “MTECC24 CFHBEC-Amax %” value is on record as 90% and the EC50 was found to be 6 nM.
As to `CC1(C)CCN(c2ccc(Cl)cc2OC2(C(=O)NS(=O)(=O)c3cccc(N4CCC(O)(C(C)(C)C)CC4)n3)CC2)CC1` [Example 10-6, N-((6-(4-(tert-butyl)-4-hydroxypiperidin-1-yl)pyridin-2-yl)sulfonyl)-1-(5-chloro-2-(4,4-dimethylpiperidin-1-yl)phenoxy)cyclopropanecarboxamide], in assay [1], the Emax is 462% and the EC50 turned out to be 750 nM. Besides, in assay [2], the “MTECC24 CFHBEC-Amax %” value was 103.9% and the EC50 was 80 nM.
`CC(C)CCOc1ccc(Cl)cc1OC1(C(=O)NS(=O)(=O)c2cccc(N3CC[C@H](O)C3)n2)CC1` [Example 6-12, (S)-1-(5-chloro-2-(isopentyloxy)phenoxy)-N-((6-(3-hydroxypyrrolidin-1-yl)pyridin-2-yl)sulfonyl)cyclopropanecarboxamide]: in assay [1], the Emax amounted to 297% and a half-maximal response (EC50) required 2710 nM. In assay [2], the “MTECC24 CFHBEC-Amax %” value amounted to 111.4% and the EC50 was found to be 852 nM.
Turning to `Cc1ccc(C2CCCCC2)c(OC2(C(=O)NS(=O)(=O)c3cccc(N4CCC5(CCCC5N)CC4)n3)CC2)c1` (single isomer, unassigned) [Example 2-32-1, N-((6-(1-Amino-8-azaspiro[4.5]decan-8-yl)pyridin-2-yl)sulfonyl)-1-(2-cyclohexyl-5-methylphenoxy)cyclopropanecarboxamide], in assay [1], the “DelF508-CFTR-HRP Amax %” value came out at 537% and a half-maximal response (EC50) required 3350 nM. In assay [2], the “MTECC24 CFHBEC-Amax %” value came to 78% and the EC50 turned out to be 12 nM.
`CC1(C)CCN(c2ccc(Cl)cc2OC2(C(=O)NS(=O)(=O)c3cccc(N4CCC(C)(O)CC4)n3)CC2)CC1` [Example 9-42, 1-(5-Chloro-2-(4,4-dimethylpiperidin-1-yl)phenoxy)-N-((6-(4-hydroxy-4-methylpiperidin-1-yl)pyridin-2-yl)sulfonyl)cyclopropane-1-carboxamide]: in assay [1], the Emax was 588% and the EC50 was 1350 nM. Further, in assay [2], the “MTECC24 CFHBEC-Amax %” value came to 93.9% and the EC50 was determined as 138 nM.
For `Cc1ccc(C2CCCCC2)c(OC2(C(=O)NS(=O)(=O)c3cccc(N4CCNC(C(F)(F)F)C4)n3)CC2)c1` (centres unmarked) [Example 2-37, 1-(2-Cyclohexyl-5-methylphenoxy)-N-((6-(3-(trifluoromethyl)piperazin-1-yl)pyridin-2-yl)sulfonyl)cyclopropanecarboxamide], in assay [1], the Emax worked out at 306% and the response was half-maximal at 1350 nM (EC50). In assay [2], the “MTECC24 CFHBEC-Amax %” value is recorded as 103% and the concentration for a half-maximal effect (EC50) was determined as 3 nM.
As for `Cc1ccc(OCCC2CCCCC2)c(OC2(C(=O)NS(=O)(=O)c3cccc(N4CC[C@H](O)C4)n3)CC2)c1` [Example 6-11, (S)-1-(2-(2-cyclohexylethoxy)-5-methylphenoxy)-N-((6-(3-hydroxypyrrolidin-1-yl)pyridin-2-yl)sulfonyl)cyclopropanecarboxamide], in assay [1], the Emax was found to be 311% and the EC50 stood at 1180 nM. Besides, in assay [2], the “MTECC24 CFHBEC-Amax %” value came to 113.6% and the EC50 was found to be 261 nM.
For `Cc1ccc(C2CCCCC2)c(OC2(C(=O)NS(=O)(=O)c3cccc(N[C@H]4C[C@H](O)C4)n3)CC2)c1` [Example 2-35, 1-(2-Cyclohexyl-5-methylphenoxy)-N-((6-((trans-3-hydroxycyclobutyl)amino)pyridin-2-yl)sulfonyl)cyclopropane-1-carboxamide], in assay [1], the Emax came out at 235% and the EC50 came out at 2420 nM. In assay [2], the “MTECC24 CFHBEC-Amax %” value was determined as 76% and the EC50 was 108 nM.
In the case of `Cc1ccc(C2CCC3(CCCC3)OC2)c(OC2(C(=O)NS(=O)(=O)c3cccc(N4CCC(O)(c5ccc(Cl)cc5)CC4)n3)CC2)c1` (single isomer, unassigned) [Example 11-3-1, N-((6-(4-(4-chlorophenyl)-4-hydroxypiperidin-1-yl)pyridin-2-yl)sulfonyl)-1-(5-methyl-2-(6-oxaspiro[4.5]decan-8-yl)phenoxy)cyclopropane-1-carboxamide], in assay [1], the “DelF508-CFTR-HRP Amax %” value came out at 380.3% and the EC50 was 680 nM. Moreover, in assay [2], the “MTECC24 CFHBEC-Amax %” value worked out at 100.3% and the EC50 was 117 nM.
For `CN(C)c1cccc(S(=O)(=O)NC(=O)C2(Oc3cc(Cl)ccc3C3CC4(CCC4)C3)CC2)n1` [Example 7-15, 1-(5-Chloro-2-(spiro[3.3]heptan-2-yl)phenoxy)-N-((6-(dimethylamino)pyridin-2-yl)sulfonyl)cyclopropane-1-carboxamide], in assay [1], the Emax came to 442% and the EC50 amounted to 860 nM. Also, in assay [2], the “MTECC24 CFHBEC-Amax %” value came to 120.7% and the EC50 amounted to 166 nM.

For the origin of these results see US20220033407A1, “N-(pyridin-2-ylsulfonyl)cyclopropanecarboxamide Derivatives and their Use in the Treatment of Disease” (NOVARTIS AG, priority 2018, published 2022).
